Laboratory results reported in article PMC8670630 (Bioorganic & medicinal chemistry letters, 2021).

Legend:
[1] = Mouse plasma protein binding; assay type: in vitro ADME
mammalian cells = settings: in vitro tests; ref [21],[22]; cited from earlier work
CoQ-binding site in SQOR = settings: in vitro tests; ref [21],[22]; cited from earlier work
[2] = test system: murine model of heart failure; settings: ref [21],[22]; cited from earlier work
Caco-2 = Caco-2 permeability; assay type: in vitro ADME
[3] = target: human sulfide:quinone oxidoreductase (SQOR) (Homo sapiens, UniProt Q9Y6N5); assay: SQOR inhibition; assay type: biochemical
Chain of human sulfide:quinone oxidoreductase (SQOR) (Q9Y6N5 whole entry): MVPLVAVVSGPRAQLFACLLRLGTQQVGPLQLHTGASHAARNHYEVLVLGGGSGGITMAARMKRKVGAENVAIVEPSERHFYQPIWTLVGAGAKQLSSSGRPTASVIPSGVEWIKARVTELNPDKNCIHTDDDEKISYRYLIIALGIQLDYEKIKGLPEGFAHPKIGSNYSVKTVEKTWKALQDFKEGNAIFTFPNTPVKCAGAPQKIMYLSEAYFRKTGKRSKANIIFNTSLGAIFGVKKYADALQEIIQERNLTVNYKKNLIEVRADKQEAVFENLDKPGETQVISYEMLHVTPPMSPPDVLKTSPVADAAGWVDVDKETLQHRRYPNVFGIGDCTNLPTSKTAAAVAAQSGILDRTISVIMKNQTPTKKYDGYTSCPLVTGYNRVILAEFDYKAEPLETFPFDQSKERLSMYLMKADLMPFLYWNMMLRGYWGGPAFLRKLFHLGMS

SMILES: COc1nc(-c2ncccc2C)cc(-c2ccc(N)cc2)c1C#N [Compound 19]
- Mouse Plasma Protein Binding (% bound) [1]: 97.8 % bound
- toxicity in mammalian cells (mammalian cells): little or no toxicity
- specificity for the CoQ-binding site in SQOR (CoQ-binding site in SQOR): high degree of specificity
- effect on cardiac function and progression to heart failure [2]: preserves cardiac function and prevents the progression to heart failure

SMILES: COc1nc(-c2ncccc2C)cc(-c2ccc(F)cc2)c1C#N [Compound 15]
- Mouse Plasma Protein Binding (% bound) [1]: 99.64 % bound
- Caco-2 permeability A→B (Caco-2; A→B): 0.455 1 × 10^−6 cm/s
- Caco-2 permeability B→A (Caco-2; B→A): 0.769 1 × 10^−6 cm/s

SMILES: CCOc1nc(-c2ccccc2)nc(-c2ccccc2)c1C#N [Compound 24]
- fold less active than the equivalent pyridine 21 ([3]; SQOR inhibition, 24 versus 21): 2 fold

SMILES: COc1nc(-c2ccccc2)cc(-c2ccc(Cl)cc2Cl)c1C#N [Compound 7]
- activity in IC50 assay (in words) [3]: inactivity
